Measurements from US7071218B2, “N-substituted heterocycles for the treatment of hypercholesteremia, dyslipidemia and other metabolic disorders; cancer, and other diseases” (Incyte San Diego Incorporated, priority 2001, dated 2006).

Assays:
[1] = tested on: LXR; test: In vitro transactivation assay in CV-1 cells, antagonism of T0901317-induced Gal-LXR activation; format: cell-based; conditions: at 10 μM, with 1 μM agonist T0901317, dose-dependent
From the text: In vitro screens such as the transactivation assay can be used to measure the ability of a compound to inhibit a nuclear receptor regulating lipid or carbohydrate uptake, synthesis or metabolism. In the assay described herein compounds can be identified that can inhibit activation of the following nuclear receptors: LXR, PPARα, PPARγ and FXR. This activity can be useful to treat lipid disorders such as hypercholesteremia and obesity.
Cell line: Kidney Green Monkey CV-1 cells.
Growing culturing medium: Dulbecco's modified Eagle's medium (DMEM) supplememnted with 10% fetal calf serum (FCS).
Procedure: CV-1 cells were plated in 48 well-plate culture plates, at a density of 10,000 cells/well, 24 h prior to transfection. One to three hours before transfection, cells were fed with fresh medium. A modified calcium phosphate precipitation procedure was used for transient transfection (Pfahl, M. et al., 1990, Methods in Enzymology 189: 256).
Typically, 40 ng reporter plasmid and 20 ng of each receptor expression vector were mixed, together with 10 ng of β-galactosidase control plasmid (pCH110, Pharmacia, Piscataway, N.J.) and Bluescript plasmid to obtain a total of 400 ng DNA per well. To this mixture 1 μl of 2.5M CaCl2 and 10 μl of BBS buffer, pH 6.95, were added afterward. […]

[2] = tested on: MDA-MB-468 breast cancer cells; test: MTT anti-cancer assay, MDA-MB-468 breast cancer cells; format: cell-based, human; conditions: at 10 μM, 6 days
From the text: (§1) The anti-cancer activity of the compounds of the invention herein have been tested in in vitro assays using a microculture assay with 3-(4,5-dimethylthiazol-2-yl)-2,5-diphenyltetrazolium bromide (“MTT”) a test well known to those skilled in the art. This assay has an advantage over in vivo assay in that results are obtained within a week as opposed to several months. The assay can be carried out in 96-well microtiter plates. The MTT assay is based on the production of a dark blue formazan product by dehydrogenase in the mitochondria of live tumor cells after exposure to drug for 6 days [M. C. […] Thus, only live cells are stained and can be measured at 595 nm. […]
(§2) Treatment: Before commencing drug treatment, cells were replenished with media containing 0.5% FCS. […] As an end point, the amount of surviving cells (Live cells) was measured using a standard […] assay (MTT based), and calculated as percentage of cells treated with vehicle (DMSO) alone (% control).
(§3) MTT assay: The assay is based on the cleavage of the yellow tetrazolium salt MTT to purple formazan crystals by dehydrogenase activity in active mitochondria. […] The formazan crystals formed are solubilized and the resulting colored solution is quantified using a scanning multiwell spectrophotometer. […]

[3] = tested on: human cancer cell lines (A549, MDA-MB-468, PC-3, Bx-PC3); test: MTT anti-cancer assay, the other cancer cell lines of the panel; format: cell-based; conditions: at 10 μM, 6 days, cell lines other than MDA-MB-468 (A549, PC-3, Bx-PC3)
From the text: as §1, §2, §3

Q: `CN(C)c1cc2c(cc1-c1ccc3cc(/C=C4\SC(=S)N(CC(=O)O)C4=O)ccc3c1)C(C)(C)CCC2(C)C` [Compound 7, {5-[6-(3-Dimethylamino-5,5,8,8-tetramethyl-5,6,7,8-tetrahydro-naphthalen-2-yl)-naphthalen-2-ylmethylene]-4-oxo-2-thioxo-thiazolidin-3-yl}-acetic acid] was tested. Which “inhibition of T0901317-induced LXR activation” value [1] did it give?
A: 80–90%

Q: And the cells killed [2]?
A: ~80%

Q: And the cells killed [3]?
A: ≤ 50%
